Tests used:
[1] = target: T1, human CCR-2 (Homo sapiens, UniProt P41597); experiment: CCR-2 calcium mobilization, THP-1 cells; assay type: cell-based; details: MCP-1 10 nM, read-out: CCR-2 Ca2+ Flux IC50
T1 sequence (P41597 1-360 isoform P41597-2): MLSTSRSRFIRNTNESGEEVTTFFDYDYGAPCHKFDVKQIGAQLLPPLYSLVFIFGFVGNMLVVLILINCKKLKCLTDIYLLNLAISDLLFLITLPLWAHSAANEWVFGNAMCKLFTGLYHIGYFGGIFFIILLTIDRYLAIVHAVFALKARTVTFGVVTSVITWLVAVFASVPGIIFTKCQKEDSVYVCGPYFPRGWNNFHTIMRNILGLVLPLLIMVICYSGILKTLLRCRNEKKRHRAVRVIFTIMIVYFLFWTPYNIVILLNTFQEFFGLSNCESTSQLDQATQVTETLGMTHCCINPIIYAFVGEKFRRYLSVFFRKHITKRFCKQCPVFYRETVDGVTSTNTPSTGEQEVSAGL
Method: All conditions were tested in duplicate.

[2] = target: CCR-2 (Homo sapiens, UniProt P41597); experiment: In vivo receptor occupancy in blood of hCCR-2 KI mice (Gaddum equation); details: for % Example 1 bound CCR-2 / % free CCR-2 / % mouse MCP-1 bound CCR-2: 48 h
CCR-2, sequence (P41597 whole entry): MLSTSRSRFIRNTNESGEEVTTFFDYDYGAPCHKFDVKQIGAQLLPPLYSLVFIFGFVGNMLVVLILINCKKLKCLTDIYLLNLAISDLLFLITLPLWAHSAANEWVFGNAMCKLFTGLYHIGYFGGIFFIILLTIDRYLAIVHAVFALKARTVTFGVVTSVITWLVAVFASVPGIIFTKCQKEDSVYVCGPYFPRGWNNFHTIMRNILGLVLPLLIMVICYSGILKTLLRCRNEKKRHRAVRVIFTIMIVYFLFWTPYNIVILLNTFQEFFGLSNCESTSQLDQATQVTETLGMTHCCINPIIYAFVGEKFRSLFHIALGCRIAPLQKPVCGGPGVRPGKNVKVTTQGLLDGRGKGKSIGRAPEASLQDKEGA
Source text: The caveat for this estimation is that only CCR-2 and its major ligand MCP-1 were taken into consideration. The receptor occupancy of a ligand in the presence of a competitive inhibitor is defined by the Gaddum equation: […]
Since Example 1 is a competitive inhibitor of MCP-1 binding to CCR-2, the amounts of both mouse MCP-1/CCR-2 receptor complex and Example 1/CCR-2 receptor complex can be determined using the serum levels of both mouse MCP-1 and protein-unbound Example 1 in plasma. […] The fraction of mouse MCP-1/CCR-2 receptor complexes is determined using the form of the equation described above. To determine the fraction of Example 1/CCR-2 complexes the equation is re-defined as:
[formula] Finally, the amount of CCR-2 free is determined from: [CCR-2]total=[CCR-2]free+[mouse MCP-1/CCR-2]+[Example 1/CCR-2]

[3] = tested on: monocyte/macrophage infiltration; experiment: 48-hour thioglycollate (TG)-induced peritonitis model in hCCR-2 KI mouse; assay type: in vivo; details: for % inhibition of monocyte/macrophage infiltration: 48 h post TG
Method: The hCCR-2 KI mice (C57BL/6-SVJ129) were injected intraperitoneally with 1 ml of thioglycollate (TG) (Hardy Diagnostics). For each study, eight male mice per group were used. Example 1 was dosed orally 1 hour prior to TG injection. The vehicle used was 0.01 N HCl in water. Forty-eight hours post TG injection, peritoneal lavages were performed by injecting 5 ml PBS/10 mM EDTA/10% BSA into the peritoneal cavity.
For the 48-hour TG peritonitis study, Example 1 was dosed twice a day with the first dose one hour prior to TG injection. Total peritoneal cell counts were obtained on isolated cells by a cell counter. Cytospins were performed to determine differential leukocyte counts. The cells were stained for 3 minutes with Wright-Giemsa Stain (Sigma-Aldrich) and then rinsed with deionized water for 5 minutes. Differential counts were calculated based on a total of 200 cells counted per sample. Blood was also collected from the retro-orbital sinus at the end of each study in EDTA for determination of drug concentration.
For flow cytometric analysis, peritoneal exudate cells (1×10^6) were washed once with FACS buffer (PBS/0.5% BSA) and resuspended in FACS buffer. Cells were incubated with an Fc-blocking antibody (BD Pharmingen) on ice for 15 min followed by addition of the following antibodies (BD Pharmingen): PE conjugated anti-F4/80, FITC conjugated anti-Ly6C, and Alexa 647 conjugated anti-hCCR-2. After 45 min on ice, cells were fixed by BD CYTOFIX® for 15 min on ice, washed twice with FACS buffer, and resuspended in 200 μl FACS buffer. Cellular events (40,000) were acquired for each sample and data were analyzed using FloJo software (TreeStar). A FSC/SSC gate was set to include all monocytes (low SSC, higher FSC) while excluding granulocytes from the analysis. This gated population was then analyzed for Ly6C (FITC), F4/80 (PE) expression. Peritoneal monocytes/macrophage numbers were determined by multiplying total peritoneal cell counts obtained by the cell counter and the percentage of monocytes/macrophages identified by F4/80^+ cells from flow cytometry. Statistical significance of differences between means was analyzed using the paired two-tailed t test with significance set at p values below 0.05.
Example 1 was evaluated in the hCCR-2 KI mouse TG peritonitis model to determine its EC50 in inhibiting monocyte/macrophage infiltration. Mice were administered thioglycollate, and dosed orally with Example 1 at 10, 50, or 160 mg/kg BID. Forty eight hours post TG treatment, peritoneal lavage was obtained for cellular infiltrate analysis by flow cytometry.

[4] = target: T2, CCR-5 (Homo sapiens, UniProt P51681); experiment: CCR-5 chemotaxis, MIP-1β-induced, peripheral T cells; assay type: cell-based
T2 construct: human peripheral T cells was used as a source of CCR-5; endogenous in cells; host or cells: human peripheral T cells from donors pre-screened for high CCR-5 expression
T2 sequence (P51681 whole entry): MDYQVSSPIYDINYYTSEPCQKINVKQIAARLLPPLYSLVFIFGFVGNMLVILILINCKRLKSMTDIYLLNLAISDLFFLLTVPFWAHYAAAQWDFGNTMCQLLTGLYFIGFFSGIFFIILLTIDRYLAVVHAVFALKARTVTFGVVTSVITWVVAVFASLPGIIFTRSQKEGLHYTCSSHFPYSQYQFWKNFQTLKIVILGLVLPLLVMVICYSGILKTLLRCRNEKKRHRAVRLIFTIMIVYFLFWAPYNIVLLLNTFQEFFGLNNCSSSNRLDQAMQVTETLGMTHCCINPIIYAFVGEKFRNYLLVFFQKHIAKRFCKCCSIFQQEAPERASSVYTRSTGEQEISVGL
Source text: Therefore, blood donors were pre-screened for high T-cell expression of CCR-5. hPBMCs were first isolated from human whole blood by standard protocol with Ficoll-Hypaque. Flow cytometric analysis was then used to measure CCR-5 expression on T cells following staining with anti-CCR-5 antibody plus anti-CD4 antibody or anti-CD8 antibody. Those blood donors in which >5% peripheral T cells (CD4^+ and CD8^+) express CCR-5 were requested to provide blood again for isolation of PBMCs and, subsequently, of T cells using a standard E-rosetting technique which relies on the unique ability of T cells to bind to sheep red blood cells (RBCs).
A similar procedure to that set forth above was adopted except that isolated peripheral T cells was used as CCR-5-expressing cells and MIP-1β (50 nM, PeproTech Inc.) was the ligand.

[5] = 200 mg/kg (different study), oral BID

SMILES: CC(=O)N[C@@H]1C[C@H](NC(C)(C)C)CC[C@@H]1N1CC[C@H](Nc2ncnc3cc(C(C)(C)C)nn23)C1=O [Example 1, N-((1R,2 S,5R)-5-(tert-Butylamino)-2-((S)-3-(7-tert-butylpyrazolo[1,5-a][1,3,5]triazin-4-ylamino)-2-oxopyrrolidin-1-yl)cyclohexyl)acetamide]
- IC50 [1]: 2.9 ± 1.5 nM
- % Example 1 bound CCR-2 ([2]; 10 mg/kg oral BID): 48.15%
- % free CCR-2 ([2]; 10 mg/kg oral BID): 50.68%
- % mouse MCP-1 bound CCR-2 ([2]; 10 mg/kg oral BID): 1.17%
- % Example 1 bound CCR-2 ([2]; 50 mg/kg oral BID): 88.74%
- % free CCR-2 ([2]; 50 mg/kg oral BID): 10.69%
- % mouse MCP-1 bound CCR-2 ([2]; 50 mg/kg oral BID): 0.56%
- % Example 1 bound CCR-2 ([2]; 160 mg/kg oral BID): 96.72%
- % free CCR-2 ([2]; 160 mg/kg oral BID): 3.12%
- % mouse MCP-1 bound CCR-2 ([2]; 160 mg/kg oral BID): 0.16%
- % Example 1 bound CCR-2 [2, 5]: 98.45%
- % free CCR-2 [2, 5]: 1.44%
- % mouse MCP-1 bound CCR-2 [2, 5]: 0.11%
- CCR-2 occupancy at maximal inhibition of monocyte/macrophage infiltration ([2]; hCCR-2 KI mouse TG peritonitis): 98.5%
- % inhibition of monocyte/macrophage infiltration ([3]; 10 mg/kg oral BID): 25%
- % inhibition of monocyte/macrophage infiltration ([3]; 50 mg/kg oral BID): 54%
- % inhibition of monocyte/macrophage infiltration ([3]; 160 mg/kg oral BID): 63%
- % inhibition of monocyte/macrophage infiltration [3, 5]: 71%
- EC50 ([3]; Mus musculus, estimated from four separate studies, hCCR-2 KI mouse, read-out: average EC50 for inhibition of monocyte/macrophage infiltration): 4.9 nM
- maximal inhibition of monocyte/macrophage infiltration reached ([3]; four separate studies with multiple doses): ~70%
- IC50 [4]: 1.1 ± 0.6 nM

Reference: US8618101B2, “N-((1R,2S,5R)-5-(tert-butylamino)-2-((S)-3-(7-tert-butylpyrazolo[1,5-a][1,3,5]triazin-4-ylamino)-2-oxopyrrolidin-1-yl)cyclohexyl)acetamide, a dual modulator of chemokine receptor activity, crystalline forms and processes” (Bristol-Myers Squibb Company, priority 2009, dated 2013)
